The values below come from ChEMBL document CHEMBL5360582, “Caryophyllene Sesquiterpenes from a Chaetomium globosum Endophyte of the Canadian Medicinal Plant Empetrum nigrum” (J Nat Prod, 2023).

Converted amounts (≈) assume the structure as drawn. The source made the active and inactive calls. No cut-off for these calls is given here.

Experiment [1] deals with Staphylococcus aureus. The experiment can be described thus: Antibacterial activity against Staphylococcus aureus ATCC 29213 assessed as inhibition of bacterial growth at 100 microg/ml. It is filed as functional, organism-based. The following applies: dose 100.0 µg/ml.
A further experiment relates to Pseudomonas aeruginosa. The experiment can be described thus: Antibacterial activity against Pseudomonas aeruginosa ATCC 10145 assessed as inhibition of bacterial growth at 100 microg/ml. It is filed as functional, organism-based. To be noted: dose 100.0 µg/ml.
In experiment [2] the test system is Mycobacterium tuberculosis. The experiment can be described thus: Antimycobacterial activity against Mycobacterium tuberculosis H37Ra ATCC 25177 assessed as inhibition of bacterial growth at 100 microg/ml. It is filed as functional, organism-based. To be noted: dose 100.0 µg/ml.
Another experiment relates to Candida albicans. The experiment can be described thus: Antifungal activity against Candida albicans ATCC 14053 assessed as inhibition of bacterial growth at 100 microg/ml. It is filed as functional, organism-based. The following applies: dose 100.0 µg/ml.
The subject of experiment [3] is Mycobacterium tuberculosis. The experiment can be described thus: Antimycobacterial activity against Mycobacterium tuberculosis H37Ra ATCC 25177 assessed as inhibition of bacterial growth. It is filed as functional, organism-based.
Experiment [4] deals with Staphylococcus aureus. The experiment can be described thus: Antibacterial activity against Staphylococcus aureus ATCC 29213 assessed as inhibition of bacterial growth. It is filed as functional, organism-based.
In another experiment the test system is SMMC-7721. The experiment can be described thus: Cytotoxicity against human SMMC-7721 cells assessed as inhibition of cell growth incubated for 68 hrs by MTT assay. The following applies: SMMC-7721, 68 h. It is filed as functional, cell-based. A general note: Tetrazolium dyes change colour on reduction, which living cells bring about.

Take `CC1(C)C[C@@H]2[C@@]3(CO)C=C[C@@H](O)[C@@]3(C)CC[C@]21O`: the outcome (with Staphylococcus aureus [1]; in the experiment with Pseudomonas aeruginosa; in experiment [2]; in the experiment on Candida albicans) was inactive.
As for `CC1(C)C[C@@H]2/C(CO)=C\C=C/[C@@](C)(O)CC[C@]21O`, the result (in the experiment with Staphylococcus aureus [1]; with Pseudomonas aeruginosa; in experiment [2]; in the experiment on Candida albicans) was inactive.
With `C/C1=C/[C@@H](OC(=O)CCC(=O)O)/C=C(/C=O)[C@H]2CC(C)(C)[C@]2(O)CC1`, the concentration for half-maximal inhibition (IC50) in experiment [3] was found to be 36.8 µg/mL (≈ 105 µM); in the experiment on Staphylococcus aureus [4], 83 µg/mL (≈ 237 µM).
Take `COc1cc([C@@H]2c3cc4c(cc3[C@@H](O[C@@H]3O[C@@H]5CO[C@@H](C)O[C@H]5[C@H](O)[C@H]3O)[C@H]3COC(=O)[C@H]23)OCO4)cc(OC)c1O` [ETOPOSIDE]: the concentration for half-maximal inhibition (IC50) in the experiment with SMMC-7721 was determined as 23.2 µM.
Regarding `CO[C@H]1[C@@H]2[C@@H](O)O[C@]3([C@H](OC(C)=O)C/C(C)=C\[C@@H]1OC)[C@H]2CC3(C)C`, in the experiment on SMMC-7721, the half-inhibitory concentration (IC50) was 28.3 µM.

The IC50 is the concentration at which inhibition is half-maximal.
